Data set [1] deals with human prostate (carcinoma) cell line (DU 145). Briefly: Growth inhibition of DU 145 cells, WST-8 assay. The class given is cell-based. The note with it: 120 h, 5 days with test compound. The procedure, abridged:
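DU 145 cells in RPMI 1640 with 10% FBS were pre-incubated 24 h at 37° C, 5% CO2, then exposed to compound for 5 days. Growth was read by WST-8 reduction (OD 450 minus 630 nm, cell-free blank subtracted). IC50 was taken relative to untreated control.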
In general terms: Formazan colour is commonly taken as a measure of viable cells.

Data set [2] concerns human breast cancer cell line (MDA-MB-468). Briefly: Growth inhibition of MDA-MB-468 cells, sulforhodamine B method. The class given is cell-based. As to conditions: 120 h, 5 days with test compound. An outline of the steps: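 MDA-MB-468 cells in DMEM/10% FBS were incubated 24 h at 37° C., then exposed to compound for 5 days. After TCA fixation and sulforhodamine B staining, OD 492 nm minus 690 nm was read with cell-free background subtracted. IC50 was set against untreated control.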

In data set [3] the test system is bicalutamide resistant human prostate cancer cell line established from LNCaP.FGC (LNCaP-Bic). The data set is described as follows: Growth inhibition of LNCaP-Bic cells, WST-8 assay. The format is cell-based. As to conditions: 120 h, 5 days with test compound. The procedure, abridged: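 Cells in RPMI 1640 with 10% FBS preincubated 24 h at 37 °C, 5% CO2, then exposed to compound for 5 days. WST-8 read-out, OD 450 minus 630 nm after cell-free blank subtraction; IC50 (nM) derived against untreated control growth.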

Data set [4] deals with human prostate (adenocarcinoma) cell line (PC-3). The data set is described as follows: Growth inhibition of PC-3 cells, WST-8 assay. The format is cell-based. The note with it: 120 h, 5 days with test compound. An outline of the steps: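 Cells seeded in RPMI 1640 with 10% FBS, grown 24 h at 37 °C, 5% CO2, then exposed to compound for 5 days. WST-8 read-out, OD 450 nm minus 630 nm reference, cell-free blank subtracted. IC50 (nM) from growth relative to compound-free control.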

Another data set relates to PSA. The data set is described as follows: Plasma levels of PSA in LNCaP-Bic tumor bearing nude mice, ELISA. The format is in vivo. As to conditions: Mus musculus, po, 336 h; 10 mg/kg/day orally, once daily, 14 consecutive days; plasma PSA by ELISA; read-out: T/C(%) (10 mg/kg/day), plasma levels of PSA treated/control. The method, then:
(§1) Human prostate cancer cells (LNCaP-Bic) were transplanted in nude mice (6 males/group) and the inhibitory effect of the invention on their growth was examined. In the study, the tumor cell suspension with matrigel was inoculated at 0.12 mL/body (2.4×10^6 cells/body) into the subcutaneous space of the right axillary region to prepare tumor bearing mice. When the tumor diameter became 5 mm or more, the animals were allocated to groups based on the tumor volume. The test compound was administered orally as a suspension in 5% gum arabic, once daily, for 14 consecutive days. The control group received 5% gum arabic. Tumor volumes were measured on the following day of the last administration. Tumors were removed and the wet weight of the tumor was measured using an electronic balance. The ratio of the tumor weight in the treated group to that in the control group (T/C %) was calculated as the index for the effect. T/C %=(Mean tumor weight in the treatment group/Mean tumor weight in the control group)×100.
The heparinized blood was collected from the postcava under diethylether anesthesia. The plasma levels of PSA were measured using ELISA. The ratio of the plasma levels of PSA in the treated group to that in the control group (T/C %) was calculated as the index for the effect. T/C %=(Mean plasma levels of PSA in the treatment group/Mean plasma levels of PSA in the control group)×100.
(In general: In an ELISA, binding on a coated surface is turned into a signal by an enzyme label.)

For data set [5], the system named is Human prostate cancer cells (LNCaP-Bic). The data set is described as follows: Antitumor effect on LNCaP-Bic tumors transplanted in nude mice, tumor weight. The class given is in vivo. As to conditions: Mus musculus, po, 336 h, 10 mg/kg/day orally, once daily, 14 consecutive days, read-out: T/C(%) (10 mg/kg/day), tumor weight treated/control. The method, then:
as §1

In data set [6] the test system is human prostate (carcinoma) cell line (LNCaP.FGC). The data set is described as follows: Growth inhibition of LNCaP.FGC cells, WST-8 assay. The class given is cell-based. The note with it: 120 h, 5 days with test compound. An outline of the steps:
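Bicalutamide-resistant LNCaP-Bic cells (and parental LNCaP.FGC) in RPMI 1640 + 10% FBS were preincubated 24 h at 37 °C, 5% CO2, then exposed to compound for 5 days. Growth read by WST-8, OD 450 nm minus 630 nm, cell-free blank subtracted; IC50 (nM) taken relative to untreated control.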

The test system of data set [7] is human prostate (adenocarcinoma) cell line (VcaP). The data set is described as follows: Growth inhibition of VcaP cells, WST-8 assay. The format is cell-based. The note with it: 120 h, 5 days with test compound. An outline of the steps: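 Cells in RPMI 1640 with 10% FBS were preincubated 24 h at 37° C., 5% CO2, then exposed to compound for 5 days. Growth read by WST-8 at 450 nm minus 630 nm, cell-free background subtracted. IC50 derived relative to untreated control.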

The test system of data set [8] is human hepatic cancer cell line (HuH-7). The data set is described as follows: Growth inhibition of HuH-7 cells, sulforhodamine B method. The note with it: Homo sapiens, 120 h, 5 days with test compound. The class given is cell-based. The method, then:
Growth inhibition of a human breast cancer cell line (MDA-MB-468) was determined by the sulforhodamine B method based on the method of Skehan P. et al. (J Natl Cancer Inst. 1990 Jul. 4; 82(13): 1107-12). In the study, MDA-MB-468 cells were seeded on DMEM medium containing 10% fetal bovine serum in a 96-well microplate. After 24-h incubation at 37° C. in the presence of 5% carbon dioxide, the test compound was added and the cells were incubated for another 5 days. After incubation, a trichloroacetic acid solution was added to yield the final concentration of 10% and the cells were left to stand at 4° C. for 1 hour to fix. Then, the cells were washed with water to remove the medium and trichloroacetic acid and dried in the air. The dried cells were stored at 4° C. until they were stained with sulforhodamine B. To each well, 1% acetic acid solution containing 0.4% sulforhodamine B was added and left to stand for 20 to 30 minutes at room temperature. After discarding the supernatant, each well was washed with 1% acetic acid solution, and 10 mM Tris([…]) solution was added while stirring to elute the dye taken into the cells. Then, the optical density was determined at the measurement wavelength of 492 nm and the reference wavelength of 690 nm, and the difference was calculated. The cell growth activity in each well was defined as the value determined by subtracting the OD in the control well not containing cells (the difference in absorbance between 492 nm and 690 nm) from that in the test well.
The 50% inhibitory concentration (IC50 (nM)) of the test compound was determined by comparing the cell growth activity in the well containing the test compound with that of the control not containing the test compound.
The growth inhibition on a human hepatic cancer cell line (HuH-7) was also determined by the above method.
(Sulforhodamine B stains cellular protein and so reports cell mass.)

Structures can show the parent of a compound that is named as a salt.

With `Cc1ccc(COc2ccc(Oc3c(C)cc(/C=C/C(=O)N4CCN(Cc5ccc(CCOc6ccc(Cl)cc6)cc5)CC4)cc3Cl)nc2)cc1` [Example 408, (E)-3-[3-chloro-5-methyl-4-({5-[(4-methylbenzyl)oxy]pyridin-2-yl}oxy)phenyl]-1-(4-{4-[2-(4-chlorophenoxy)ethyl]benzyl}piperazin-1-yl)prop-2-en-1-one hydrochloride], the IC50 in data set [1], in data set [2], in data set [3], in [4], in [6] and in data set [7] was below 10 nM in each case. For the same compound, in [8], the IC50 (usually the point on the concentration scale where inhibition reaches its midpoint) is below 10 nM. The response vs control in vivo at 10 mg/kg (in the data set on PSA; in data set [5]) was below 50% throughout.

With `Cc1ccc(COc2ccc(Oc3c(C)cc(/C=C/C(=O)N4CCN(Cc5ccc(CCOc6ccc(F)cc6)cc5)CC4)cc3Cl)nc2)cc1.Cl` [Example 430, (E)-3-[3-Chloro-5-methyl-4-({5-[(4-methylbenzyl)oxy]pyridin-2-yl}oxy)phenyl]-1-(4-{4-[2-(4-fluorophenoxy)ethyl]benzyl}piperazin-1-yl)prop-2-en-1-one hydrochloride], the melting point (usually the temperature, or range, at which the solid turns liquid) fell in the range of 227.1 to 227.2 °C. For the same compound, in data set [1], the half-maximal inhibitory concentration (IC50) is below 10 nM. The compound also came in with a half-maximal inhibitory concentration (IC50) in [2] below 10 nM. Moreover, in data set [3], the IC50 is below 10 nM. In addition, the IC50 in data set [4] is below 10 nM. Further, in the data set with PSA, the response vs control in vivo at 10 mg/kg is below 50%. Moreover, the response vs control in vivo at 10 mg/kg in data set [5] was below 50%. This compound also came in with an IC50 in [6] below 10 nM. Moreover, the IC50 in [7] is below 10 nM. The same compound registered an IC50 in data set [8] below 10 nM.

Compound `Cc1ccc(COc2ccc(Oc3c(C)cc(/C=C/C(=O)N4CCN(Cc5ccc(CCOc6ccc(C)cc6)cc5)CC4)cc3Cl)nc2)cc1.Cl` [Example 432, (E)-3-[3-Chloro-5-methyl-4-({5-[(4-methylbenzyl)oxy]pyridin-2-yl}oxy)phenyl]-1-(4-{4-[2-(4-methylphenoxy)ethyl]benzyl}piperazin-1-yl)prop-2-en-1-one hydrochloride] displayed a melting point of 232.1 to 232.7 °C. The IC50 in [1] is below 10 nM. This compound also had an IC50 in [2] below 10 nM. This compound also showed an IC50 in [3] below 10 nM. In data set [4], this compound had a concentration for half-maximal inhibition (IC50) below 10 nM. Further, the response vs control in vivo at 10 mg/kg in the data set on PSA is below 50%. Moreover, the response vs control in vivo at 10 mg/kg in data set [5] is below 50%. Also, the IC50 in data set [6] was below 10 nM. The IC50 in data set [7] was below 10 nM. The IC50 in data set [8] was below 10 nM.

On to `Cc1cc(/C=C/C(=O)N2CCN(Cc3ccc(CCOc4ccc(F)cc4)cc3)CC2)cc(Cl)c1Oc1ccc(OCc2ccc(F)cc2)cn1.Cl` [Example 435, (E)-3-[3-Chloro-4-({5-[(4-fluorobenzyl)oxy]pyridin-2-yl}oxy)-5-methylphenyl]-1-(4-{4-[2-(4-fluorophenoxy)ethyl]benzyl}piperazin-1-yl)prop-2-en-1-one hydrochloride], for which the melting point was in the range of 214.3 to 216.2 °C. Also, in data set [1], the half-inhibitory concentration (IC50) is below 10 nM. Moreover, in [2], the half-inhibitory concentration (IC50) was below 10 nM. Also, the IC50 in data set [3] was below 10 nM. In [4], this compound gave an IC50 below 10 nM. Further, the response vs control in vivo at 10 mg/kg in the data set on PSA was below 50%. For the same compound, in data set [5], the response vs control in vivo at 10 mg/kg is below 50%. The compound further had a 50% inhibitory concentration (IC50) in data set [6] below 10 nM. This compound came in with an IC50 in [7] below 10 nM. This compound also yielded a concentration for half-maximal inhibition (IC50) in [8] below 10 nM.

As for `Cc1cc(/C=C/C(=O)N2CCN(Cc3ccc(CCOc4ccc(C(C)C)cc4)cc3)CC2)cc(Cl)c1Oc1ccc(OCc2ccc(F)cc2)cn1` [Example 438, (E)-3-[3-Chloro-4-({5-[(4-fluorobenzyl)oxy]pyridin-2-yl}oxy)-5-methylphenyl]-1-[4-(4-{2-[4-(propan-2-yl)phenoxy]ethyl}benzyl)piperazin-1-yl]prop-2-en-1-one hydrochloride], the IC50 in data set [1], in data set [2], in data set [3], in [4], in data set [6] and in data set [7] was below 10 nM in each case. The same compound returned a 50% inhibitory concentration (IC50) in [8] below 10 nM. Further, the response vs control in vivo at 10 mg/kg (in the data set with PSA; in data set [5]) was below 50% throughout.

As for `COc1ccc(OCCc2ccc(CN3CCN(C(=O)/C=C/c4cc(C)c(Oc5ccc(OCc6ccc(C)cc6)cn5)c(Cl)c4)CC3)cc2)cc1.Cl` [Example 440, (E)-3-[3-Chloro-5-methyl-4-({5-[(4-methylbenzyl)oxy]pyridin-2-yl}oxy)phenyl]-1-(4-{4-[2-(4-methoxyphenoxy)ethyl]benzyl}piperazin-1-yl)prop-2-en-1-one hydrochloride], the melting point lay within 225.1 to 226.6 °C. Further, the half-maximal inhibitory concentration (IC50) in [1] is below 10 nM. In data set [3], this compound gave an IC50 below 10 nM. Further, in [4], the concentration for half-maximal inhibition (IC50) is below 10 nM. Also, the response vs control in vivo at 10 mg/kg in the data set on PSA is below 50%. For the same compound, the response vs control in vivo at 10 mg/kg in [5] was below 50%. This compound came in with a 50% inhibitory concentration (IC50) in [6] below 10 nM. In [7], this compound showed an IC50 below 10 nM.

On to `Cc1ccc(OCCc2ccc(CN3CCN(C(=O)/C=C/c4cc(C)c(Oc5ccc(OCc6ccc(Cl)cc6)cn5)c(Cl)c4)CC3)cc2)cc1.Cl` [Example 777, (E)-3-[3-chloro-4-({5-[(4-chlorobenzyl)oxy]pyridin-2-yl}oxy)-5-methylphenyl]-1-(4-{4-[2-(4-methylphenoxy)ethyl]benzyl}piperazin-1-yl)prop-2-en-1-one hydrochloride], for which the melting point fell in the range of 220.1 to 220.3 °C. Besides, the half-maximal inhibitory concentration (IC50) in data set [1] was below 10 nM. The compound also came in with a concentration for half-maximal inhibition (IC50) in data set [2] below 10 nM. Further, in data set [3], the half-inhibitory concentration (IC50) is below 10 nM. The same compound displayed an IC50 in data set [4] below 10 nM. Besides, the response vs control in vivo at 10 mg/kg in the data set with PSA is below 50%. Besides, the response vs control in vivo at 10 mg/kg in data set [5] was below 50%. The same compound yielded an IC50 in [6] below 10 nM. This compound returned a half-inhibitory concentration (IC50) in data set [7] below 10 nM. Also, the concentration for half-maximal inhibition (IC50) in data set [8] is below 10 nM.

Source of the values: US8722663B2, “Di-substituted pyridine derivatives as anticancers” (Otsuka Pharmaceutical Co., Ltd., priority 2010, dated 2014).
